Data as given in patent US20080241274A1 (ZIOPHARM Oncology, Inc., priority 2006, published 2008).
Where two headings read alike, the source gives them in different places. Values belong to the compound of their own block, whether it stands above or below them.

Columns and labels:
[1] = system: MCF-7 ER-positive breast cancer; experiment: Monolayer assay (DNA content by propidium iodide), single agents and indibulin combinations, MCF-7; type: cell-based, human; details: for IC50: Homo sapiens; for CI (e), coefficient of interaction under optimal experimental concentrations: named drug in combination with indibulin, mean of quadruplicate
Experimental: (§1) The monolayer assay determines the in vitro antitumor activity of test compounds and their capacity to inhibit survival and proliferation of established tumor cell lines. These effects can be determined by establishing the number of viable cells based on measuring the DNA content using propidium iodide. […] Between 5,000 and 10,000 cells were seeded in 96 well plates on Day 0 and the compounds were added 1 day later and incubated for 4 days. The activity was assessed by their IC50 and IC70 values.
(§2) Growth IC50 and IC70 values (Table 2) were determined using XLfit software package, and used to set the concentration ranges and drug ratios for the synergy detection part of the study.
(§3) Chou-Talalay median effect method was used to quantitatively characterize drug-drug interaction [Chou T. C. Theoretical basis, experimental design, and computerized simulation of synergism and antagonism in drug combination studies. Pharmacol Rev. 2006 September; 58(3):621-81]. […] Mixtures of the drugs at multiples of their single agent IC50's were prepared, as well as serial dilutions of the mixture. Additionally, single agent dose response was determined for the same concentration ranges as used for combination study.
(§4) The coefficient of interaction (CI(IC50)) at IC50 and coefficient of interaction under optimal experimental concentrations (CI(e)) were determined using CalcuSyn software package (Table 3, tests were performed in quadruplicate, mean values reported). Commonly, experimental values of CI<0.8 are considered synergistic, 0.8<CI<1.2 additive.

[2] = system: A549 NSCLC; experiment: Monolayer assay (DNA content by propidium iodide), single agents and indibulin combinations, A549; type: cell-based, human; details: for CI (e), coefficient of interaction under optimal experimental concentrations: named drug in combination with indibulin, mean of quadruplicate; for IC50: Homo sapiens
Experimental: as §1, §2, §3, §4

[3] = system: SKOV3 (ovarian); experiment: Monolayer assay (DNA content by propidium iodide), single agents and indibulin combinations, SKOV3; type: cell-based, human; details: for Single Agent IC50: SKOV3, single agent (combination study); for Combination IC50 / CI (e), coefficient of interaction under optimal experimental concentrations: SKOV3; for CI (e), coefficient of interaction under optimal experimental concentrations: named drug in combination with indibulin, mean of quadruplicate; for IC50: Homo sapiens
Experimental: as §1, §2, §3, §4

[4] = system: PC3 (prostate); experiment: Monolayer assay (DNA content by propidium iodide), single agents and indibulin combinations, PC3; type: cell-based, human; details: for IC50: Homo sapiens, read-out: Single Agent IC50; for Combination IC50 / CI (e), coefficient of interaction under optimal experimental concentrations: PC3; for Combination IC50: concentration of the named drug in the combination; for CI (e), coefficient of interaction under optimal experimental concentrations: named drug in combination with indibulin, mean of quadruplicate
Experimental: as §1, §2, §3, §4

[5] = system: biotin-labeled calf brain tubulin; experiment: Competition with 3H-indibulin for tubulin binding (SPA beads); set-up: species or system bovine; details: 200-fold molar excess of cold competitor; FIG. 7
Experimental: (§5) Where indicated, a 200-fold molar excess of cold competitor was added. Tubulin heterodimers were then precipitated with streptavidin-coated SPA beads and bound radioactivity was determined. “No tubulin” indicates non-specifically bound radioactivity measured in the absence of biotin-labeled tubulin.

[6] = system: biotin-labeled calf brain tubulin; experiment: Competition with 3H-colchicine for tubulin binding (SPA beads); set-up: species or system bovine; details: 200-fold molar excess of cold competitor; FIG. 8
Experimental: as §5

[7] = system: axonal microtubules of rat pheochromocytoma (PC12) cells; experiment: Axonal microtubule immunostaining in NGF-differentiated PC12 cells; type: cell-based; details: PC12 neurites induced by NGF 5-6 days; 24 h treatment at 2×IC50 concentration
From the text: The outgrowth of neurites of PCl2 was induced by NGF for 5-6 days. […] Microtubules within the neurites, were visualized by immunostaining with an antibody recognizing acetylated (axonal) tubulin, leaving the cell bodies unstained.

[8] = system: adult bovine brain tubulin; experiment: Tubulin polymerization, adult bovine brain tubulin; type: biochemical; details: calf and adult bovine brain tubulin compared
From the text: Tubulin from neuronal tissue is post-translationally modified and the degree of modification increases during neuronal development. Calf brain neuronal tubulin and tubulin from other tissues differ in their post-translational modifications from that of adult bovine brain. […] Tubulin polymerization is given as % over DMSO control.

[9] = MCF7, MCF7, single agent (combination study), read-out: Single Agent IC50
[10] = MCF7, single agent (combination study)
[11] = MCF7, indibulin + 5-FU (5FU:indibulin 10.9:1), concentration of the named drug in the combination
[12] = A549, single agent (combination study)
[13] = A549, indibulin + carboplatin (carboplatin:indibulin 303:1), concentration of the named drug in the combination
[14] = A549, 96 h, A549, single agent, 4 days incubation, read-out: Growth IC50
[15] = MCF7, 96 h, MCF7, single agent, 4 days incubation, read-out: Growth IC50
[16] = MCF7, indibulin + paclitaxel (paclitaxel:indibulin 0.27:1), concentration of the named drug in the combination
[17] = MCF7, indibulin + vinorelbine (vinorelbine:indibulin 0.016:1), concentration of the named drug in the combination

IC50 [1, 9]: 92 ng/mL | Combination IC50 [1, 11]: 57 ng/mL
Compound: O=c1[nH]cc(F)c(=O)[nH]1 [5-FU, 5-Fluorouracil]
Single Agent IC60 [1, 10]: 84 ng/mL | Combination IC60 [1, 11]: 30 ng/mL | CI (e), coefficient of interaction under optimal experimental concentrations ([1]; MCF7): 0.46

Compound: N.N.O=C([O-])C1(C(=O)[O-])CCC1.[Pt+2] [Carboplatin]
Single Agent IC50 [2, 12]: 5,827 ng/mL | Single Agent IC70 [2, 12]: 15365 ng/mL | Combination IC50 [2, 13]: 3481 ng/mL | Combination IC70 [2, 13]: 8044 ng/mL | CI (e), coefficient of interaction under optimal experimental concentrations ([2]; A549): 0.72 | Single Agent IC50 [3]: 12,026 ng/mL | Combination IC50 ([3]; indibulin + carboplatin, concentration of the named drug in the combination): 12,881 ng/mL | CI (e), coefficient of interaction under optimal experimental concentrations [3]: 0.73

Compound: N.N.[Cl][Pt][Cl] [Cisplatin]
Single Agent IC50 [3]: 773 ng/mL | Combination IC50 ([3]; indibulin + cisplatin, concentration of the named drug in the combination): 780 ng/mL | CI (e), coefficient of interaction under optimal experimental concentrations [3]: 0.77

IC50 [1, 9]: 7 ng/mL | Combination IC50 ([1]; MCF7, indibulin + doxorubicin, concentration of the named drug in the combination): 3 ng/mL
Compound: COc1cccc2c1C(=O)c1c(O)c3c(c(O)c1C2=O)C[C@@](O)(C(=O)CO)C[C@@H]3O[C@H]1C[C@H](N)[C@H](O)[C@H](C)O1 [Doxorubicin]
CI (e), coefficient of interaction under optimal experimental concentrations ([1]; MCF7): 0.64

IC50 [2, 14]: 7860 ng/mL | IC50 ([2]; A549, A549, single agent (combination study), read-out: Single Agent IC50): 38500 ng/mL | IC50 ([2]; A549, A549, indibulin + erlotinib (erlotinib:indibulin 208:1), concentration of the named drug in the combination, read-out: Combination IC50): 6200 ng/mL
Compound: C#Cc1cccc(Nc2ncnc3cc(OCCOC)c(OCCOC)cc23)c1 [Erlotinib]
Single Agent IC40 [2, 12]: 20315 ng/mL | Combination IC40 ([2]; A549, indibulin + erlotinib (erlotinib:indibulin 208:1), concentration of the named drug in the combination): 4424 ng/mL | CI (e), coefficient of interaction under optimal experimental concentrations ([2]; A549): 0.32

Compound: C[C@]12CC[C@@H]3c4ccc(OC(=O)N(CCCl)CCCl)cc4CC[C@H]3[C@@H]1CC[C@@H]2O [Estramustine]
IC50 [4]: 29700 ng/mL | Combination IC50 ([4]; indibulin + estramustine): 26,466 ng/mL | CI (e), coefficient of interaction under optimal experimental concentrations [4]: 0.76

IC50 [2, 14]: 52 ng/mL
Compound: COc1cc([C@@H]2c3cc4c(cc3[C@@H](O[C@@H]3O[C@@H]5CO[C@@H](C)O[C@H]5[C@H](O)[C@H]3O)[C@H]3COC(=O)[C@H]23)OCO4)cc(OC)c1O [Etoposide]
Single Agent IC60 [2, 12]: 177 ng/mL | Combination IC60 ([2]; A549, indibulin + etoposide, concentration of the named drug in the combination): 94 ng/mL | CI (e), coefficient of interaction under optimal experimental concentrations ([2]; A549): 1.05

IC50 [2, 14]: 1.7 ng/mL | IC50 ([3]; SK-OV-3, SKOV3, single agent (combination study), read-out: Single Agent IC50): 11 ng/mL | IC50 ([3]; SK-OV-3, SKOV3, indibulin + gemcitabine, concentration of the named drug in the combination, read-out: Combination IC50): 12 ng/mL
Compound: Nc1ccn([C@@H]2O[C@H](CO)[C@@H](O)C2(F)F)c(=O)n1 [Gemcitabine]
CI (e), coefficient of interaction under optimal experimental concentrations ([2]; A549): 0.93 | CI (e), coefficient of interaction under optimal experimental concentrations [3]: 0.65

Competition with 3H-indibulin for tubulin binding [5]: do not compete | IC50 [1, 15]: 0.3 ng/mL | IC50 [1, 9]: 1.27 ng/mL | Combination IC50 [1, 16]: 1.08 ng/mL | Inhibition of 3H-colchicine binding (in words) [6]: no effect
Compound: CC(=O)O[C@H]1C(=O)[C@@]2(C)[C@H]([C@H](OC(=O)c3ccccc3)[C@]3(O)C[C@H](OC(=O)[C@H](O)[C@@H](NC(=O)c4ccccc4)c4ccccc4)C(C)=C1C3(C)C)[C@]1(OC(C)=O)CO[C@@H]1C[C@@H]2O [Paclitaxel]
Single Agent IC84 [1, 10]: 5.3 ng/mL | Combination IC84 [1, 16]: 2.7 ng/mL | CI (e), coefficient of interaction under optimal experimental concentrations ([1]; MCF7): 0.42

IC50 ([4]; PC3, single agent (combination study)): 137000 ng/mL | Combination IC50 ([4]; indibulin + prednisolone): 145,659 ng/mL
Compound: C[C@]12C=CC(=O)C=C1CC[C@@H]1[C@@H]2[C@@H](O)C[C@@]2(C)[C@H]1CC[C@]2(O)C(=O)CO [Prednisolone]
CI (e), coefficient of interaction under optimal experimental concentrations [4]: 0.91

Compound: CC/C(=C(\c1ccccc1)c1ccc(OCCN(C)C)cc1)c1ccccc1 [Tamoxifen]
Single Agent IC60 [1, 10]: 3166 ng/mL | Combination IC60 ([1]; MCF7, indibulin + tamoxifen (tamoxifen:indibulin 100:1), concentration of the named drug in the combination): 641 ng/mL | CI (e), coefficient of interaction under optimal experimental concentrations ([1]; MCF7): 0.67

Competition with 3H-indibulin for tubulin binding [5]: do not compete | Inhibition of 3H-colchicine binding (in words) [6]: no effect
Compound: CC[C@]1(O)C[C@@H]2CN(CCc3c([nH]c4ccccc34)[C@@](C(=O)OC)(c3cc4c(cc3OC)N(C)[C@H]3[C@@](O)(C(=O)OC)[C@H](OC(C)=O)[C@]5(CC)C=CCN6CC[C@]43[C@@H]65)C2)C1 [Vinblastine]
CI (e), coefficient of interaction under optimal experimental concentrations ([1]; MCF7): 0.50

IC50 [1, 15]: 0.18 ng/mL | IC50 [1, 9]: 0.19 ng/mL | Combination IC50 [1, 17]: 0.08 ng/mL
Compound: CCC1=C[C@@H]2CN(C1)Cc1c([nH]c3ccccc13)[C@@](C(=O)OC)(c1cc3c(cc1OC)N(C)[C@H]1[C@@](O)(C(=O)OC)[C@H](OC(C)=O)[C@]4(CC)C=CCN5CC[C@]31[C@@H]54)C2 [Vinorelbine]
Single Agent IC60 [1, 10]: 0.26 ng/mL | Combination IC60 [1, 17]: 0.10 ng/mL

Compound: COc1cc2c(c(OC)c1OC)-c1ccc(OC)c(=O)cc1[C@@H](NC(C)=O)CC2 [colchicine]
Effect on axonal microtubules (acetylated tubulin immunostaining) [7]: microtubules were partially disrupted

Compound: COC(=O)Nc1nc2ccc(C(=O)c3cccs3)cc2[nH]1 [nocodazole]
Competition with 3H-indibulin for tubulin binding [5]: compete | Inhibition of 3H-colchicine binding (in words) [6]: completely inhibit binding

Compound: COc1cc([C@@H]2c3cc4c(cc3[C@H](O)[C@H]3COC(=O)[C@H]23)OCO4)cc(OC)c1OC [podophyllotoxin]
Competition with 3H-indibulin for tubulin binding [5]: compete | Inhibition of 3H-colchicine binding (in words) [6]: completely inhibit binding

Compound: CC[C@]1(O)C[C@H]2CN(CCc3c([nH]c4ccccc34)[C@@](C(=O)OC)(c3cc4c(cc3OC)N(C=O)[C@H]3[C@@](O)(C(=O)OC)[C@H](OC(C)=O)[C@]5(CC)C=CCN6CC[C@]43[C@@H]65)C2)C1 [vincristine]
Inhibition of calf versus bovine brain tubulin polymerization (in words) [8]: inhibited both, calf and bovine brain tubulin polymerization to a similar extent
